Laboratory results as given in EP0840781B1, “METHODS AND DEVICES FOR THE REMOVAL OF PSORALENS FROM BLOOD PRODUCTS” (Cerus Corporation, priority 1995, dated 1996).
Read-outs that look alike come from different tables or passages of the source.

Key:
[1] = test system: Salmonella typhimurium tester strains TA97a, TA98, TA100, TA102, TA1537 and TA1538; conditions: for revertant colonies, TA1538 +S9 (Table 18 (A)): background 123; for revertant colonies, TA1538 -S9 (Table 18 (A)): background 126; for revertant colonies, TA1537 -S9 (Table 18 (A)): background 20; for revertant colonies, TA1537 +S9 (Table 18 (A)): background 25; for revertant colonies, TA98 -S9 / revertant colonies, TA98 +S9: Table 19 (A) experiment; for revertant colonies, TA98 -S9: background 17; for revertant colonies, TA98 +S9: background 28
Outline: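 Ames pre-incubation test in S. typhimurium TA97a, TA98, TA1537, TA1538 (frameshift) and TA100, TA102 (base-substitution), with or without 10% Aroclor 1254-induced rat liver S-9. Test solutions at 0–500 µg/mL pre-incubated 20 min at 37 °C, plated in histidine/biotin top agar; revertant colonies counted after 44 h at 37 °C.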

[2] = test system: HIV-1; conditions: 1 Minute Irradiation
Protocol: Pathogen inactivation efficiency of several compounds described herein was evaluated by examining the ability of the compounds to inactivate cell-free virus (HIV). Inactivation of cell-free HIV was performed as follows.
As in the R17 assay, small aliquots of the compounds listed in TABLES 10 and 11, below, at the concentrations listed in the table, were added to stock HIV-1 to a total of 0.5 mL. The stock HIV (10^5 - 10^7 plaque forming units/mL) was in DMEM/15% FBS. […] Controls included HIV-I stock only, HIV-1 plus UVA only, and HIV-I plus the highest concentration of each psoralen tested, with no UVA. Post irradiation. all samples were store frozen at -70° C until assayed for infectivity by a microtiter plaque assay. Aliquots for measurement of residual HIV infectivity in the samples treated with a compound of the present invention were withdrawn and cultured.
Residual HIV infectivity was assayed using an MT-2 infectivity assay. […] The assay medium was 85% DMEM (with a high glucose concentration) containing 100 µg of streptomycin, 100 U of penicillin, 50 µg of gentamicin, and 1 µg of amphotericin B per mL, 15% FBS and 2 µg of Polybrene (Sigma Chemical Co., St. Louis, Mo.) per mL. Test and control samples from the inactivation procedure were diluted in 50% assay medium and 50% normal human pooled plasma. The samples were serially diluted directly in 96-well plates (Coming Glass Works, Coming, N.Y.). The plates were mixed on an oscillatory shaker for 30 seconds and incubated at 37°C in a 5% CO2 atmosphere for 1 to 18 hours. […] After an additional 1 hour of incubation at 37°C in 5% CO2, 0.075 mL of assay medium containing 1.6% SeaPlaque agarose (FMC Bioproducts, Rockland, Maine) and prewarmed to 38.5°C was added to each well. The plates were kept at 37°C for a few minutes until several plates had accumulated and then centrifuged in plate carriers at 600 x g for 20 minutes in a centrifuge precooled to 10°C. In the centrifuge, cell monolayers formed prior to gelling of the agarose layer. The plates were incubated for 5 days at 37°C in 5% CO2 and stained by the addition of 0.05 mL of 50 µg/mL propidium iodide (Sigma Chemical Co.) in phosphate-buffered saline (pH 7.4) to each well. After 24 to 48 hours, the red fluorescence-stained microplaques were visualized by placing the plates on an 8,000 µW/cm^2 304 nm UV light box (Fotodyne, Inc., New Berlin, Wis.). The plaques were counted at a magnification of x20 to x25 through a stereomicroscope.

[3] = two-fold or greater increase in revertants above background and dose dependent response
[4] = 16 µM, HIV Starting Titer Approximately 5.4 Logs (Table 11)
[5] = 32 µM, HIV Starting Titer Approximately 5.4 Logs (Table 11)
[6] = 64 µM, HIV Starting Titer Approximately 5.4 Logs (Table 11)

For `Cc1oc2c(C)c3oc(=O)cc(C)c3cc2c1CNCCCCN` [Compound 6, 4'-(6-amino-2-aza)hexyl4,5',8-trimethylpsoralen], the “revertant colonies, TA1538 +S9” value ([1]; 5 µg/plate) was 0, the “revertant colonies, TA1538 -S9” value ([1]; 5 µg/plate) was -5 and the “revertant colonies, TA1538 +S9 (Table 18 (A))” value ([1]; 5 µg/plate) was 12. The “revertant colonies, TA1538 -S9 (Table 18 (A))” value ([1]; 5 µg/plate) was -32, the “revertant colonies, TA1537 +S9” value ([1]; 10 µg/plate) was -1 and the “revertant colonies, TA1537 -S9” value ([1]; 10 µg/plate) was 141. For the same compound, the “revertant colonies, TA1538 +S9” value ([1]; 10 µg/plate) was 8, the “revertant colonies, TA1538 -S9” value ([1]; 10 µg/plate) was -2 and the “revertant colonies, TA1537 -S9 (Table 18 (A))” value ([1]; 10 µg/plate) was 12. The “revertant colonies, TA1537 +S9 (Table 18 (A))” value ([1]; 10 µg/plate) was -5, the “revertant colonies, TA1538 +S9 (Table 18 (A))” value ([1]; 10 µg/plate) was -5 and the “revertant colonies, TA1538 -S9 (Table 18 (A))” value ([1]; 10 µg/plate) was 3. For the same compound, the “revertant colonies, TA1537 +S9” value ([1]; 50 µg/plate) was 17, the “revertant colonies, TA1537 -S9” value ([1]; 50 µg/plate) was 2010 and the “revertant colonies, TA1537 -S9 (Table 18 (A))” value ([1]; 50 µg/plate) was 12. For the same compound, the “revertant colonies, TA1537 +S9 (Table 18 (A))” value ([1]; 50 µg/plate) was 2, the “revertant colonies, TA1538 +S9 (Table 18 (A))” value ([1]; 50 µg/plate) was 24 and the “revertant colonies, TA1538 -S9 (Table 18 (A))” value ([1]; 50 µg/plate) was 2. For the same compound, the “revertant colonies, TA1537 +S9” value ([1]; 100 µg/plate) was 35, the “revertant colonies, TA1537 -S9” value ([1]; 100 µg/plate) was 795 and the “revertant colonies, TA1537 -S9 (Table 18 (A))” value ([1]; 100 µg/plate) was 22. For the same compound, the “revertant colonies, TA1537 +S9 (Table 18 (A))” value ([1]; 100 µg/plate) was 20, the “revertant colonies, TA1538 +S9 (Table 18 (A))” value ([1]; 100 µg/plate) was -2 and the “revertant colonies, TA1538 -S9 (Table 18 (A))” value ([1]; 100 µg/plate) was -18. For the same compound, the “revertant colonies, TA1537 +S9” value ([1]; 250 µg/plate) was 99, the “revertant colonies, TA1537 -S9” value ([1]; 250 µg/plate) was 228 and the “revertant colonies, TA1537 -S9 (Table 18 (A))” value ([1]; 250 µg/plate) was 12. The “revertant colonies, TA1537 +S9 (Table 18 (A))” value ([1]; 250 µg/plate) was 40, the “revertant colonies, TA1538 +S9 (Table 18 (A))” value ([1]; 250 µg/plate) was -38 and the “revertant colonies, TA1537 +S9” value ([1]; 500 µg/plate) was 369. For the same compound, the “revertant colonies, TA1537 -S9” value ([1]; 500 µg/plate) was 43, the “revertant colonies, TA1537 -S9 (Table 18 (A))” value ([1]; 500 µg/plate) was 9 and the “revertant colonies, TA1537 +S9 (Table 18 (A))” value ([1]; 500 µg/plate) was 52. The “frameshift mutagenicity (Ames, summary)” value [1, 3] was “a frameshift response in TA98 in the presence of S9 at concentrations of 250µg/plate and above. It also showed a response at 50µg/plate in TA1537 in the presence of S9”, the “base-substitution mutagenicity (Ames, summary)” value ([1]; two-fold or greater increase in revertants above background and dose dependent response, TA100, TA102) was “no base substitution mutagenicity” and the “HIV Log Kill” value ([2]; 16 µM, HIV Starting Titer Approximately 5 Logs (Table 10)) was 2.0. The “HIV Log Kill” value [2, 4] was 2.1, the “HIV Log Kill” value ([2]; 32 µM, HIV Starting Titer Approximately 5 Logs (Table 10)) was 3.1 and the “HIV Log Kill” value [2, 5] was 3.2. For the same compound, the “HIV Log Kill” value ([2]; 64 µM, HIV Starting Titer Approximately 5 Logs (Table 10)) was greater than 3.8 and the “HIV Log Kill” value [2, 6] was greater than 2.8.
`Cc1cc(=O)oc2c(C)c3oc(COCCN)c(C)c3cc12` [Compound 18, 5'-(4-amino-2-oxa)butyl-4,4',8-trimethylpsoralen] was tested, and the “revertant colonies, TA98 -S9” value ([1]; 10 µg/plate) was 21, the “revertant colonies, TA98 +S9” value ([1]; 10 µg/plate) was 8 and the “revertant colonies, TA1537 +S9” value ([1]; 10 µg/plate, Table 19 (B) experiment, background 7) was 8. For the same compound, the “revertant colonies, TA1537 -S9” value ([1]; 10 µg/plate, Table 19 (B) experiment, background 8) was 21, the “revertant colonies, TA98 -S9” value ([1]; 50 µg/plate) was 303 and the “revertant colonies, TA98 +S9” value ([1]; 50 µg/plate) was 6. The “revertant colonies, TA1537 +S9” value ([1]; 50 µg/plate, Table 19 (B) experiment, background 7) was 6, the “revertant colonies, TA1537 -S9” value ([1]; 50 µg/plate, Table 19 (B) experiment, background 8) was 303 and the “revertant colonies, TA98 -S9” value ([1]; 100 µg/plate) was 390. The “revertant colonies, TA98 +S9” value ([1]; 100 µg/plate) was 26, the “revertant colonies, TA1537 +S9” value ([1]; 100 µg/plate, Table 19 (B) experiment, background 7) was 26 and the “revertant colonies, TA1537 -S9” value ([1]; 100 µg/plate, Table 19 (B) experiment, background 8) was 390. The “revertant colonies, TA98 -S9” value ([1]; 200 µg/plate) was 225, the “revertant colonies, TA98 +S9” value ([1]; 200 µg/plate) was 42 and the “revertant colonies, TA1537 +S9” value ([1]; 200 µg/plate, Table 19 (B) experiment, background 7) was 42. The “revertant colonies, TA1537 -S9” value ([1]; 200 µg/plate, Table 19 (B) experiment, background 8) was 225, the “mutagenic response (Ames, summary)” value [1, 3] was “only a weak response at high concentrations in the presence of S9 in strains TA 9o and TA 1537” and the “HIV Log Kill” value [2, 4] was 1.0. For the same compound, the “HIV Log Kill” value [2, 5] was 1.0 and the “HIV Log Kill” value [2, 6] was 3.1.
